The target of this experiment is T1, human LPA1 (Homo sapiens, UniProt Q92633).
T1 construct: expressed in transfected cells; host or cells: Chinese hamster ovary (CHO) cells
T1 sequence (Q92633 whole entry): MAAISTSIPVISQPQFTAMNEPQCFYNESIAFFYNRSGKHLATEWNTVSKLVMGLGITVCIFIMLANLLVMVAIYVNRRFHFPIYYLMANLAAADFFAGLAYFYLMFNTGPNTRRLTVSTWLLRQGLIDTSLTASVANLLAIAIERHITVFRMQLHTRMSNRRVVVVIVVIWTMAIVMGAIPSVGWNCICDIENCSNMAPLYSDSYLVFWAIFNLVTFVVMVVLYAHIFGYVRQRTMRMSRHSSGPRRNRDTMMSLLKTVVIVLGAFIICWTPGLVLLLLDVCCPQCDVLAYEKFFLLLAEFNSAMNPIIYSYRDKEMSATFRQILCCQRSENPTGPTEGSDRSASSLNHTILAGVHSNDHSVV
Kind of experiment: LPA1 functional antagonist assay (LPA-induced calcium flux). The experiment is classed as cell-based. The following applies: CHO cells overexpressing human LPA1; inhibition of calcium flux induced by 10 nM LPA; read-out: hLPA1 IC50. The method, then:
The effectiveness of compounds of the present invention as LPA1 inhibitors can be determined in an LPA1 functional antagonist assay as follows:
Chinese hamster ovary cells overexpressing human LPA1 were plated overnight (15,000 cells/well) in poly-D-lysine coated 384-well microplates (Greiner bio-one, Cat #781946) in DMEM/F12 medium (Gibco, Cat #11039). Following overnight culture, cells were loaded with calcium indicator dye (AAT Bioquest Inc, Cat #34601) for 30 minutes at 37° C. The cells were then equilibrated to room temperature for 30 minutes before the assay. Test compounds solubilized in DMSO were transferred to 384 well non-binding surface plates (Corning, Cat #3575) using the Labcyte Echo acoustic dispense and diluted with assay buffer [1×HBSS with calcium/magnesium (Gibco Cat #14025-092), 20 mM HEPES (Gibco Cat #15630-080) and 0.1% fatty acid free BSA (Sigma Cat #A9205)] to a final concentration of 0.5% DMSO. Diluted compounds were added to the cells by FDSS6000 (Hamamatsu) at final concentrations ranging from 0.08 nM to 5 μM. and were then incubated for 20 min at room temperature at which time LPA (Avanti Polar Lipids Cat #857130C) was added at final concentrations of 10 nM to stimulate the cells. The compound IC50 value was defined as the concentration of test compound which inhibited 50% of the calcium flux induced by LPA alone. IC50 values were determined by fitting data to a 4-parameter logistic equation (GraphPad Prism, San Diego CA).
On to `Cc1nc(-c2onc(C)c2COC(=O)N(C)C2CCCC2)ccc1O[C@H]1CC[C@H](C(=O)O)C1` (racemic) [Example 77, (±)-trans-3-({6-[4-({[cyclopentyl(methyl)carbamoyl]oxy}methyl)-3-methyl-1,2-oxazol-5-yl]-2-methyl-pyridin-3-yl}oxy)cyclopentane-1-carboxylic acid], for which the half-maximal inhibitory concentration (IC50) was 66 nM.

As for `Cc1nc(-c2nnn(C)c2CNc2noc(CCC3CCC3)n2)ccc1O[C@H]1CC[C@H](CC(=O)O)C1` (racemic) [Example 80, (±)-2-(3-((6-(5-(((5-(2-cyclobutylethyl)-1,2,4-oxadiazol-3-yl)amino)methyl)-1-methyl-1H-1,2,3-triazol-4-yl)-2-methylpyridin-3-yl)oxy)cyclopentyl)acetic Acid], the IC50 turned out to be 108 nM. Next, `Cc1nc(-c2nnn(C)c2NC(=O)OCC(C)C)ccc1O[C@H]1CC[C@H](CC(=O)O)C1` (racemic) [Example 81, (±)-Trans-2-(3-((6-(5-((isobutoxycarbonyl)amino)-1-methyl-1H-1,2,3-triazol-4-yl)-2-methylpyridin-3-yl)oxy)cyclopentyl)acetic Acid]: 613 nM; `Cc1nc(-c2nnn(C)c2CNc2noc(CC3CC3)n2)ccc1O[C@H]1CC[C@H](CC(=O)O)C1` (racemic) [Example 82, (±)-trans-2-[3-({6-[5-({[5-(cyclopropyl-methyl)-1,2,4-oxadiazol-3-yl]amino}methyl)-1-methyl-1H-1,2,3-triazol-4-yl]-2-methylpyridin-3-yl}oxy)cyclo-pentyl]acetic acid]: 572 nM; `Cc1nc(-c2nnn(C)c2NC(=O)OCC2CC2)ccc1O[C@H]1CC[C@H](CC(=O)O)C1` (racemic) [Example 83, (±)-trans-2-[3-{[6-(5-{(cyclopropylmethoxy)carbonyl]amino}-1-methyl-1H-1,2,3-triazol-4-yl)-2-methyl-pyridin-3-yl]oxy}cyclopentyl]acetic acid]: 1230 nM. Next, `Cc1nc(-c2onc(C)c2COC(=O)N(C)C2CCCC2)ccc1O[C@H]1CCC[C@H]1CC(=O)O` (racemic) [Example 85, (±)-Cis-2-(2-((6-(4-(((cyclopentyl(methyl)carbamoyl)oxy)methyl)-3-methylisoxazol-5-yl)-2-methylpyridin-3-yl)oxy)cyclopentyl)acetic Acid]: 29 nM.

Consider `CCCCN(C)C(=O)OCc1c(-c2ccc(O[C@@H]3CC[C@@H](CC(=O)O)C3)c(CC)n2)nnn1C` (racemic) [Example 86, (±)-2-((trans)-3-((6-(5-(((butyl(methyl)carbamoyl)oxy)methyl)-1-methyl-1H-1,2,3-triazol-4-yl)-2-ethylpyridin-3-yl)oxy)cyclopentyl)acetic acid], for which the IC50 was found to be 48 nM. Next, `CCc1nc(-c2nnn(C)c2COC(=O)N(C)CC2CCC2)ccc1O[C@@H]1CC[C@@H](CC(=O)O)C1` (racemic) [Example 87, (±)-2-((trans)-3-((6-(5-((((cyclo-butylmethyl)(methyl)carba-moyl)oxy)methyl)-1-methyl-1H-1,2,3-triazol-4-yl)-2-ethyl-pyridin-3-yl)oxy)cyclopentyl)acetic acid]: 46 nM; `CCCN(C)C(=O)OCc1c(-c2ccc(O[C@H]3CCC[C@H]3CC(=O)O)c(C)n2)nnn1C` (racemic) [Example 88, (±)-cis-2-(2-((2-methyl-6-(1-methyl-5-(((methyl(propyl)carbamoyl)oxy)methyl)-1H-1,2,3-triazol-4-yl)pyridin-3-yl)oxy)cyclopentyl)acetic acid]: 425 nM. Next, `Cc1nc(-c2nnn(C)c2COC(=O)N(C)CC2CC2)ccc1O[C@H]1CCC[C@H]1CC(=O)O` (racemic) [Example 89, (±)-cis-2-(2-((6-(5-((((cyclopropyl-methyl)(methyl)carbamoyl)oxy)methyl)-1-methyl-1H-1,2,3-triazol-4-yl)-2-methylpyridin-3-yl)oxy)cyclopentyl)acetic acid]: 291 nM; `CN(C(=O)OCc1c(-c2ccc(O[C@H]3CC[C@@H](C(=O)O)C3)cc2)nnn1C)C1CCCC1` (relative stereo) [Example 11, Cis-3-(4-(5-(((cyclopentyl(methyl)carbamoyl)oxy)methyl)-1-methyl-1H-1,2,3-triazol-4-yl)phenoxy)cyclo-pentane-1-carboxylic acid]: 386 nM. Next, `CC(C)CCN(C)C(=O)OCc1c(-c2ccc(O[C@H]3CC[C@@H](C(=O)O)C3)cc2)nnn1C` (relative stereo) [Example 12, Cis-3-(4-(5-(((isopentyl(methyl)carbamoyl)oxy)methyl)-1-methyl-1H-1,2,3-triazol-4-yl)phenoxy)cyclo-pentane-1-carboxylic acid]: 448 nM; `Cc1noc(-c2ccc(OC[C@@H]3CC[C@H](C(=O)O)C3)cn2)c1CNc1nccc(-c2ccccn2)n1` (relative stereo) [Example 33, cis-3-(((6-(3-methyl-4-(((4-(pyridin-2-yl)pyrimidin-2-yl)amino)methyl)isoxazol-5-yl)pyridin-3-yl)oxy)methyl)cyclopentane-1-carboxylic acid]: 40 nM; `Cc1noc(-c2ccc(O[C@@H]3CC[C@@H](C(=O)O)C3)cn2)c1CNc1nccc(-c2ccccn2)n1` (relative stereo) [Example 34, trans-3-((6-(3-methyl-4-(((4-(pyridin-2-yl)pyrimidin-2-yl)amino)methyl)isoxazol-5-yl)pyridin-3-yl)oxy)cyclo-pentane-1-carboxylic acid]: 247 nM.

In the case of `Cc1nc(-c2onc(C)c2CNc2nccc(-c3ccccn3)n2)ccc1OC[C@@H]1CC[C@H](C(=O)O)C1` (relative stereo) [Example 35, cis-3-(((2-methyl-6-(3-methyl-4-(((4-(pyridin-2-yl)pyrimidin-2-yl)amino)methyl)isoxazol-5-yl)pyridin-3-yl)oxy)methyl)cyclopentane-1-carboxylic acid], the concentration for half-maximal inhibition (IC50) stood at 9 nM. With `Cc1nc(-c2nnn(C)c2CNc2nccc(-c3ccccn3)n2)ccc1OC[C@@H]1CC[C@H](C(=O)O)C1` (relative stereo) [Example 36, cis-3-(((2-methyl-6-(1-methyl-5-(((4-(pyridin-2-yl)pyrimidin-2-yl)amino)methyl)-1H-1,2,3-triazol-4-yl)pyridin-3-yl)oxy)methyl)cyclopentane-1-carboxylic acid], the IC50 stood at 119 nM. Next, `Cn1nnc(-c2ccc(OC[C@@H]3CC[C@H](C(=O)O)C3)cn2)c1CNc1nccc(-c2ccccn2)n1` (relative stereo) [Example 37, cis-3-(((6-(1-methyl-5-(((4-(pyridin-2-yl)pyrimidin-2-yl)amino)methyl)-1H-1,2,3-triazol-4-yl)pyridin-3-yl)oxy)methyl)cyclopentane-1-carboxylic acid]: 172 nM; `Cc1nc(-c2nnn(C)c2CNc2nccc(-c3ccccn3)n2)ccc1O[C@@H]1CC[C@@H](CC(=O)O)C1` (relative stereo) [Example 38, 2-(trans-3-((2-methyl-6-(1-methyl-5-(((4-(pyridin-2-yl)pyrimidin-2-yl)amino)methyl)-1H-1,2,3-triazol-4-yl)pyridin-3-yl)oxy)cyclopentyl)acetic acid]: 579 nM; `Cc1nc(-c2nnn(C)c2CNc2nccc(C(C)C)n2)ccc1OC[C@@H]1CC[C@H](C(=O)O)C1` (relative stereo) [Example 39, cis-3-(((6-(5-(((4-isopropylpyrimidin-2-yl)amino)methyl)-1-methyl-1H-1,2,3-triazol-4-yl)-2-methylpyridin-3-yl)oxy)methyl)cyclopentane-1-carboxylic acid]: 164 nM. Next, `Cc1nc(-c2nnn(C)c2CNc2nccc(C(C)C)n2)ccc1O[C@@H]1CC[C@@H](CC(=O)O)C1` (relative stereo) [Example 40, 2-(trans-3-((6-(5-(((4-isopropylpyrimidin-2-yl)amino)methyl)-1-methyl-1H-1,2,3-triazol-4-yl)-2-methylpyridin-3-yl)oxy)cyclopentyl)acetic acid]: 92 nM; `Cc1noc(-c2ccc(OC[C@@H]3CC[C@H](C(=O)O)C3)cc2)c1COC(=O)N(C)C1CCCC1` (relative stereo) [Example 41, Cis-3-((4-(4-(((cyclopentyl(methyl)carbamoyl)oxy)methyl)-3-methylisoxazol-5-yl)phenoxy)methyl)cyclopentane-1-carboxylic acid]: 325 nM; `Cc1noc(-c2ccc(O[C@H]3CC[C@@H](C(=O)O)C3)cc2)c1NC(=O)O[C@H](C)c1ccccc1` (single isomer, unassigned) [Example 1]: 104 nM. Next, `Cc1noc(-c2ccc(O[C@H]3CC[C@H](C(=O)O)C3)cc2)c1NC(=O)O[C@H](C)c1ccccc1` (single isomer, unassigned) [Example 2]: 31 nM; `CCCCN(C)C(=O)OCc1c(-c2ccc(O[C@H]3CC[C@H](CC(=O)O)C3)c(C)n2)nnn1C` (single isomer, unassigned) [Example 4, (±)-Trans-2-(3-((6-(5-(((butyl(methyl)carbamoyl)oxy)methyl)-1-methyl-1H-1,2,3-triazol-4-yl)-2-methylpyridin-3-yl)oxy)cyclopentyl)acetic Acid]: 15 nM.
